Assay results taken from ChEMBL document CHEMBL4043096, “Synthesis of 6-hydroxyaurone analogues and evaluation of their α-glucosidase inhibitory and glucose consumption-promoting activity: Development of highly active 5,6-disubstituted derivatives” (Bioorg Med Chem Lett, 2017).
Active and inactive are the calls of the source. No cut-off for these calls is given here.

Key:
[1] = Inhibition of baker's yeast alpha-glucosidase incubated for 30 mins using p-nitrophenyl-alpha-D-glucopyranoside substrate by spectrophotometry; parameters: species or system Saccharomyces cerevisiae
[2] = system: HepG2; assay: Induction of glucose consumption in human HepG2 cells at 1 mM incubated for 24 hrs; assay type: functional, cell-based
[3] = system: Saccharomyces cerevisiae; assay: Irreversible inhibition of baker's yeast alpha-glucosidase at […] dialyzed for 24 hrs followed by compound re-treatment for 30 mins using p-nitrophenyl-alpha-D-glucopyranoside substrate
[4] = system: Saccharomyces cerevisiae; assay: Irreversible inhibition of baker's yeast alpha-glucosidase incubated for 30 mins using p-nitrophenyl-alpha-D-glucopyranoside substrate by spectrophotometry based Lineweaver-Burk plot analysis
[5] = system: HepG2; assay: Induction of glucose consumption in human HepG2 cells at 1 uM incubated for 24 hrs; assay type: functional, cell-based
[6] = system: Saccharomyces cerevisiae; assay: Mixed competitive inhibition of baker's yeast alpha-glucosidase incubated for 30 mins using p-nitrophenyl-alpha-D-glucopyranoside substrate by spectrophotometry based Lineweaver-Burk plot analysis

IC50 [1]	Structure (SMILES)	also measured
33.4 µM	CCOC(=O)/C=C1\Oc2cc(OCc3ccc(OC)cc3)ccc2C1=O	
79.2 µM	O=C1/C(=C/c2ccc(O)cc2O)Oc2cc(O)ccc21	
20.1 µM	COc1cc2c(cc1-c1ccccc1)C(=O)CO2	
> 100 µM	O=C1/C(=C/c2cccc(O)c2)Oc2cc(O)ccc21	
26.6 µM	CCOC(=O)/C=C1\Oc2cc(OC)c(-c3ccc(F)cc3)cc2C1=O	
	CN(C)C(=N)NC(=N)N	Activity [2]: Active
> 100 µM	O=C1/C(=C/c2ccccc2)Oc2cc(O)ccc21	
93 µM	O=C1/C(=C/c2ccccc2O)Oc2cc(O)ccc21	
> 100 µM	COc1cc2c(cc1-c1ccccc1)C(=O)/C(=C/c1ccccc1)O2	
9.88 µM	COc1cc2c(cc1-c1ccc(F)cc1)C(=O)CO2	inhibition [3]: Active; inhibition [4]: Active; Activity [5]: Active; inhibition [6]: Active
> 100 µM	COc1ccc(COc2ccc3c(c2)OCC3=O)cc1	
> 100 µM	COc1cc2c(cc1-c1ccc(F)cc1)C(=O)/C(=C/c1ccccc1)O2	
67.6 µM	O=C1/C(=C/c2ccc(O)c(O)c2)Oc2cc(O)ccc21 [SULFURETIN]	
19.8 µM	COc1ccc(COc2ccc3c(c2)O/C(=C\c2ccccc2)C3=O)cc1	
10.9 µM	COc1ccc(COc2cc3c(cc2-c2ccc(C(F)(F)F)cc2)C(=O)CO3)cc1	
10.6 µM	COc1ccc(COc2cc3c(cc2-c2ccccc2)C(=O)CO3)cc1	Activity [5]: inactive
30.9 µM	O=C1/C(=C/c2ccccc2)Oc2cc(O)c(-c3ccc(C(F)(F)F)cc3)cc21	Activity [5]: Active
21.2 µM	COc1cc2c(cc1-c1ccc(C(F)(F)F)cc1)C(=O)CO2	
14.3 µM	CCOC(=O)/C=C1\Oc2cc(O)c(-c3ccc(C(F)(F)F)cc3)cc2C1=O	
> 100 µM	COc1ccc(/C=C2\Oc3cc(O)ccc3C2=O)cc1OC	
76.7 µM	O=C1/C(=C/c2ccc(O)cc2)Oc2cc(O)ccc21	
11.1 µM	CCOC(=O)/C=C1\Oc2cc(O)c(-c3ccc(F)cc3)cc2C1=O	
63.4 µM	O=C1c2ccc(O)cc2OC1Cc1ccc(O)c(O)c1 (stereo unspecified)	
24.9 µM	COc1ccc(COc2cc3c(cc2-c2ccc(F)cc2)C(=O)CO3)cc1	
50.3 µM	C[C@H]1O[C@H](O[C@H]2[C@H](O)[C@@H](O)[C@@H](O[C@H]3[C@H](O)[C@@H](O)C(O)O[C@@H]3CO)O[C@@H]2CO)[C@H](O)[C@@H](O)[C@@H]1N[C@H]1C=C(CO)[C@@H](O)[C@H](O)[C@H]1O (stereo partly specified) [ACARBOSE]	
